Here are results for four compounds from BindingDB's records for doi:10.1016/j.chembiol.2007.03.013 (Portland State University, 2007).

The target of assay [1] is T1, 3-oxoacyl-[acyl-carrier-protein] synthase 3 (Escherichia coli, UniProt C3TDZ2).
T1 sequence (C3TDZ2 whole entry): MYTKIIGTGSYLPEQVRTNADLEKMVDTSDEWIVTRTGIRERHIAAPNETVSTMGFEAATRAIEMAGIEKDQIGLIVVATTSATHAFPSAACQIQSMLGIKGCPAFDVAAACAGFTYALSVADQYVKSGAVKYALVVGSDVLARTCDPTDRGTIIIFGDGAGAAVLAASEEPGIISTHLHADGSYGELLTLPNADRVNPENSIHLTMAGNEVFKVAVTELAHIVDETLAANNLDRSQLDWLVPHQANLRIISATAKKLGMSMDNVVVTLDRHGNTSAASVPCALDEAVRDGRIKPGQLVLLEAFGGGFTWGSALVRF
Kind of assay: FabH Enzyme Assay. Conditions: pH 7; 37 °C. The protocol:
(§1) Escherichia coli FabH assays were carried out using standard coupled trichloroacetic acid precipitation assay to determine the rate formation of radiolabeled 3-ketoacyl-ACP from malonyl-ACP. Mycobacterium tuberculosis FabH assay was done by sustituting malonyl-CoA for MACP.

Assay [2] concerns the target T2, 3-oxoacyl-[acyl-carrier-protein] synthase 3 (Mycobacterium tuberculosis (strain CDC 1551 / Oshkosh), UniProt P9WNG2).
T2 sequence (P9WNG2 whole entry): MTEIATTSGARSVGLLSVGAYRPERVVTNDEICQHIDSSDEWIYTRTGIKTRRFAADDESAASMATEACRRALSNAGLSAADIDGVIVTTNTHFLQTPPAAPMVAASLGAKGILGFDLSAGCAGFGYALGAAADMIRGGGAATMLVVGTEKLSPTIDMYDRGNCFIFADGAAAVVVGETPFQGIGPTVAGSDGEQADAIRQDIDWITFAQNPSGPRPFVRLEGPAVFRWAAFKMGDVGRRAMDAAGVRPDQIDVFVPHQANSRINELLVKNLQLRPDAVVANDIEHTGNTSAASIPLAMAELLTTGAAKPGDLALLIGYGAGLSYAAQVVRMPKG
Briefly: FabH Enzyme Assay. The following applies: pH 7; 37 °C. The protocol:
as §1

As usually defined, the IC50 is the concentration at which inhibition is half-maximal. Read a low IC50 as greater potency in that assay. With `CCCCSSCCNC(=O)CCNC(=O)C(O)C(C)(C)OP(=O)(O)OP(=O)(O)OCC1OC(n2cnc3c(N)ncnc32)C(O)C1OP(=O)(O)O` (stereo not drawn) [Butyl-CoA disulfide 2], the IC50 in assay [1] and in assay [2] was above 300 µM throughout.
On to `CCCCCCCCCCSSCCNC(=O)CCNC(=O)C(O)C(C)(C)OP(=O)(O)OP(=O)(O)OCC1OC(n2cnc3c(N)ncnc32)C(O)C1OP(=O)(O)O` (stereo not drawn) [Decyl-CoA disulfide 5], for which the IC50 in assay [1] is above 300 µM; in assay [2] it was 1.2 µM.
For `CSSCCNC(=O)CCNC(=O)C(O)C(C)(C)OP(=O)(O)OP(=O)(O)OCC1OC(n2cnc3c(N)ncnc32)C(O)C1OP(=O)(O)O` (stereo not drawn) [Methyl-CoA disulfide 1], in that order: 57.1 µM and above 300 µM.
For `CCCCCCCCSSCCNC(=O)CCNC(=O)C(O)C(C)(C)OP(=O)(O)OP(=O)(O)OCC1OC(n2cnc3c(N)ncnc32)C(O)C1OP(=O)(O)O` (stereo not drawn) [Octyl-CoA disulfide 4], in that order: above 300 µM and 30.1 µM.
